Reference: US9403873B2, “Peptides targeting receptor activator of nuclear factor-κB (RANK) and their applications” (UNIVERSITE DE NANTES, priority 2011, dated 2016)
Ends that are not written are not given here.

Columns and labels:
hRANK = biological target: T1, hRANK (Homo sapiens, UniProt Q9Y6Q6); test: Surface plasmon resonance (Biacore) binding to immobilized RANK-Fc; settings: SPR, 1:1 Langmuir model
T1 construct: For NMR experiments with soluble RANK receptor-Fc (R&D Systems); purchased R&D Systems
T1 sequence (Q9Y6Q6 30-212 limits assumed): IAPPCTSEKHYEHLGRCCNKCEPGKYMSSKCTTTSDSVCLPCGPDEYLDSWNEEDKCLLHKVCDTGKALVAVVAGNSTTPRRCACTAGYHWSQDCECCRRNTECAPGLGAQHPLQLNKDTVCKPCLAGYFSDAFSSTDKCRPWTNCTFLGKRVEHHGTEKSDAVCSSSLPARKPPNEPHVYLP
Procedure: Biosensor experiments were carried out on a BIAcore 3000 instrument (BIAcore) as published previously (Baud′Huin et al. 2009). Recombinant purified RANKL (2 μg/mL in 5 mM maleate, pH 5.75) or RANK-Fc carrier-free (5 μg/mL in sodium acetate buffer, pH 5.0) were covalently immobilized to the dextran matrix of a CM5 sensor chip (BIAcore) at a flow rate of 5 μL/min. Immobilization levels ranging from 400 to 3000 Response Units (RU) for RANKL or 5000 RU for RANK were obtained. Binding assays were performed at 25° C. in 10 mM Hepes buffer, pH 7.4. The association phase was 180 seconds followed by a dissociation phase in the same buffer. Polypeptides binding studies to RANK or RANKL were determined using single cycle kinetics, starting with 100 μM of the polypeptide of interest followed by 2-fold serial dilutions (ranging from 100 to 0.78 μM). The sensorgrams were fitted to calculate the equilibrium-dissociation constants using the Langmuir 1:1 model with BiaEval 4.1 software (BIAcore). RANK-Fc CF, RANKL and OPG carrier-free were obtained from R&D Systems (Minneapolis, Minn., USA).

murine CD11b+ cells = assay type: cell-based, mouse
Source text: Human peripheral blood mononuclear cells (PBMCs) were isolated by centrifugation over Ficoll gradient (Sigma, Saint Quentin Fallavier, France). CD14^+ cells were magnetically labeled with CD14 Microbeads and positively selected by MACS technology (Miltenyi Biotec, Paris, France) as described previously (Duplomb et al. 2008). CD11b^+ monocytes were purified from murine bone marrow cells obtained by flushing the bone marrow from femora and tibiae of 4-week-old C57BL6 male mice, using MACS microbeads (Baud'huin et al. 2010). The purity of cell preparations was around 96%, as controlled by flow cytometry. Generation of osteoclasts from human CD14^+ and murine CD11b^+ monocytes was performed as described previously (Duplomb et al. 2008, Baud′huin et al. 2010). Briefly, purified cells were cultured in α-minimum essential medium (α-MEM, Gibco/Invitrogen, USA) with 10% fetal calf serum and 25 ng/mL human/murine macrophage colony-stimulating factor (M-CSF, R&D Systems, Abindgton, UK). After 3 days of culture, cell medium was replaced by fresh medium containing M-CSF and recombinant human RANKL (100 ng/mL, R&D system), supplemented with or without a polypeptide of interest (0.5-100 μM) or 50 ng/mL human OPG (R&D Systems) used as a reference inhibitor. Soluble cytokines, receptor and polypeptides were renewed every 3 days until multinucleated osteoclasts had formed. After 12 days of culture for CD14^+ cells and 15 days for CD11b^+ cells, osteoclasts were visualized by TRAP staining (Sigma, France) and cells formed with three or more nuclei were manually counted and analyzed statistically.

[1] = tested on: HEK-RANK cells (human embryonic kidney cells overexpressing RANK); test: RANK signaling and receptor half-life study in HEK-RANK cells; assay type: cell-based
Procedure: (A) Inhibition of activation of Akt, p38 and ERK by Pep8 (50 μM) was assessed as inhibition of phosphorylation (p) in RAW264.7 cells using Western blot analysis with antibodies against phospho-Akt, phospho-p38 and phospho-ERK. Immunoblots were stripped and then reprobed with antibodies against Akt, p38 and ERK. β-Actin served as loading control. (B) Western blot analyses of NF-κB distribution in the presence or absence of 50 μM Pep8. After treatment with the polypeptide, RAW264.7 cells were fractionated into nuclear and cytoplasmic portions. Nuclear proteins (45 μg) were analyzed with anti-NF-κB p105, p50 and p65 antibodies, while cytoplasmic proteins (30 μg) were analyzed with anti-IκBα. For the non-canonical NF-κB pathway, RelB expression was analyzed in both fractions. β-Actin, HDAC1 and Histone H3 served as loading controls for the cytoplasmic and nuclear fractions, respectively. A representative experiment is shown; time after RANKL stimulation is indicated in parenthesis. (C) Receptor half-life study. […] RANK expression was determined with anti-RANK/TNFRSF11A.
Murine RAW264.7 cells (ATCC) were cultured in αMEM (Invitrogen) supplemented with 10% FBS (Hyclone). Human embryonic kidney 293 cells (ATCC) were stably transduced with an expression-ready clone (Ex-00007-Lv105, OmicsLink™ Expression Clone, GeneCopoeia™) containing the ORF cDNA of RANK/TNFRSF11A. […]

NVLKLCSGE [Pep8, NVLKLCSGE]
kon (hRANK; read-out: association rate constant (kon)): 495 M⁻¹ s⁻¹ | koff (hRANK; read-out: dissociation rate constant (koff)): 0.0052 s⁻¹ | IC50 (murine CD11b+ cells): 30 µM | IC50 of osteoclast formation (murine CD11b+ cells): 29 µg/mL | number of TRAP-positive multinucleated cells, % of the number formed without the polypeptide (murine CD11b+ cells; 100 μM, murine cultures): 28% | activation of p38 after stimulation with RANKL [1]: strongly inhibited | degradation of RANK in presence of cycloheximide ([1]; CHX 4 μg/mL, Pep8 200 μM, compared with RANKL): lead to a degradation of RANK, although to a somewhat lesser extent
